This is an account of results in patent US20190008848A1, “IDENTIFICATION OF ADDITIONAL ANTI-PERSISTER ACTIVITY AGAINST BORRELIA BURGDORFERI FROM AN FDA DRUG LIBRARY” (THE JOHNS HOPKINS UNIVERSITY, priority 2015, published 2019).

Series [1] deals with stationary phase B. burgdorferi. The experiment in a line: Residual viable B. burgdorferi by epifluorescence microscope counting after drug exposure. The conditions noted are these: for viability at 50 µM: Borreliella burgdorferi, 168 h, read-out: Residual viable cells (Microscopy). The procedure: (§1) Borrelia burgdorferi strain B31 (ATCC35210) was received from the […] (Manassas, Va., USA) and was grown in BSK-H medium (HiMedia Laboratories, Mumbai, India) and 6% rabbit serum (Sigma Aldrich, St. Louis, Mo., USA). The culture was filtered and sterilized using a […] and incubated in capped sterile 50 mL conical tubes (BD Biosciences, CA, USA) at 33° C. for 7 days without antibiotics until the culture reached stationary phase.
(§2) The cultures were examined using a Nikon Eclipse E800 microscope with differential interference contrast and epifluorescent illumination. The pictures were captured using a SPOT slider color camera. A SYBR Green I/PI assay was used to assess the viability of the bacterial sample using the ratio of live to dead B. burgdorferi (measured with green and red fluorescence, respectively) as measured by a plate reader.
(§3) Briefly, prediluted drug stock (10 μL) was added to 7 day old stationary phase B. burgdorferi culture (90 μL) to achieve a 50 μM final drug concentration per well. The plates were then incubated at 33° C. for 7 days at which point the SYBR/PI rapid viability assay was performed in a fluorescence plate reader to obtain the green-red fluorescence ratio.

Series [2] has the same test system. The series can be described thus: SYBR Green I/PI viability assay (drug library screen, plate reader). The following applies: for Residual viable cells (SYBR Green/PI): Table 1; for Residual viable cells (SYBR/PI): Table 3; for viability at 50 µM: Borreliella burgdorferi, 168 h; for activity against stationary phase B. burgdorferi (in words): screen at 50 μM, 7 days. The protocol:
as §1, §2, §3

The test system of the next series is growing B. burgdorferi. The series can be described thus: MIC of active hits. It counts as cell-based, Borrelia burgdorferi.
The mark [3] stands for this setting: Table 1, drugs 50 μM, 7 day old stationary phase cells treated for 7 days.
[4] abbreviates: Table 3, drugs 50 μM, 7-day old stationary phase cells treated for 7 days.
Where [5] appears, read: drugs 50 μM, 7 day old stationary phase cells treated for 7 days.
Setting [6] is: drugs 50 μM, 7-day old stationary phase cells treated for 7 days.
[7] abbreviates: read-out: Residual viable cells (SYBR Green/PI), Table 1, drugs 50 μM, 7 day old stationary phase cells treated for 7 days.
Setting [8] is: read-out: Residual viable cells (SYBR/PI), Table 3, drugs 50 μM, 7-day old stationary phase cells treated for 7 days.

Where a name gives a salt, the structure may show the parent alone. Read-outs that look alike come from different tables or passages of the source. Bridge positions count the residues as written; N and C are the ends. Square brackets hold non-standard residues; d marks the D form. Peptide text beside a SMILES is read from it. * marks the point of attachment. Ileψ(thiazoline)Cys = CC[C@H](C)[C@H](N)C1=N[C@H](C(=O)*)CS1; dOrn = NCCC[C@@H](N)C(=O)O

With `CO[C@H]1/C=C/O[C@@]2(C)Oc3c(C)c(O)c4c(O)c(c(C=O)c(O)c4c3C2=O)NC(=O)/C(C)=C\C=C\[C@H](C)[C@H](O)[C@@H](C)[C@@H](O)[C@@H](C)[C@H](OC(C)=O)[C@@H]1C` [3-formyl Rifamycin], the “Residual viable cells (Microscopy)” value in series [1] (setting [3]) and in series [1] (setting [4]) was 59% each time. Moreover, the “Residual viable cells (SYBR Green/PI)” value in series [2] (setting [5]) turned out to be 42%. The “Residual viable cells (SYBR/PI)” value in series [2] (setting [6]) came to 42%. Besides, the minimum inhibitory concentration (MIC) with growing B. burgdorferi was in the range of 2.27 to 4.54 µg/mL.
Regarding `C[C@H]1c2cccc(O)c2C(=O)C2=C(O)[C@]3(O)C(=O)C(C(N)=O)=C(O)[C@@H](N(C)C)[C@@H]3[C@@H](O)[C@@H]21` [Doxycycline], the figures for the viability at 50 µM in series [1], in series [2] (setting [7]) and in series [2] (setting [8]) were 75%, 67% and 67%, respectively.
`ClC(Cl)=C(Cl)Cl` [Tetrachloroethylene]: the viability at 50 µM was determined as 53% in series [1] and 36% in series [2] (read-out: Residual viable cells (SYBR/PI)).
As for `Nc1nc2c(ncn2CCC(CO)CO)c(=O)[nH]1` [Penciclovir], the viability at 50 µM in series [1] was determined as 60%; in series [2] (setting [7]), 64%; in series [2] (setting [8]), 64%.
Consider `C[C@H]1[C@H](NC(=O)/C(=N\OC(C)(C)C(=O)O)c2csc(N)n2)C(=O)N1S(=O)(=O)O` [Aztreonam], for which the figures for the viability at 50 µM in series [1], in series [2] (setting [7]) and in series [2] (setting [8]) were 50%, 55% and 55%, respectively.
Take `C=CC1=C(C(=O)O)N2C(=O)[C@@H](NC(=O)/C(=N\OCC(=O)O)c3csc(N)n3)[C@H]2SC1` [Cefixime]: the viability at 50 µM in series [1], in series [2] (setting [7]) and in series [2] (setting [8]) was 56% each time.
`CCCCCCCCCC(=O)N[C@@H](Cc1c[nH]c2ccccc12)C(=O)N[C@H](CC(N)=O)C(=O)N[C@@H](CC(=O)O)C(=O)N[C@@H]1C(=O)NCC(=O)N[C@@H](CCCN)C(=O)N[C@@H](CC(=O)O)C(=O)N[C@H](C)C(=O)N[C@@H](CC(=O)O)C(=O)NCC(=O)N[C@H](CO)C(=O)N[C@@H]([C@H](C)CC(=O)O)C(=O)N[C@@H](CC(=O)c2ccccc2N)C(=O)O[C@@H]1C` [Daptomycin]: the viability at 50 µM in series [1] amounted to 35%; in series [2] (setting [7]), 28%; in series [2] (setting [8]), 28%.
`COc1ccc(C[C@H](N)C(=O)N[C@H]2[C@@H](O)[C@H](n3cnc4c(N(C)C)ncnc43)O[C@@H]2CO)cc1` [Puromycin]: the viability at 50 µM in series [1] is 48%; in series [2] (setting [7]) it was 65%; in series [2] (setting [8]) it was 65%.
Take `CC1(C)S[C@@H]2[C@H](NC(=O)[C@H](N)c3ccc(O)cc3)C(=O)N2[C@H]1C(=O)O` [Amoxicillin]: the viability at 50 µM in series [1], in series [2] (setting [7]) and in series [2] (setting [8]) was 76% each time.
As for Verteporfin, the “Residual viable cells (Microscopy)” value in series [1] turned out to be 47%. Further, in series [2], the “activity against stationary phase B. burgdorferi (in words)” value is given as “high activity”. In the series on growing B. burgdorferi, the MIC was in the range of 4.49 to 8.98 µg/mL.
As for `O=C(O)c1cn(-c2ccc(F)cc2)c2cc(N3CCNCC3)c(F)cc2c1=O` [Sarafloxacin, Sarafloxacin HCl], the results for the viability at 50 µM in series [1], in series [2] (setting [7]) and in series [2] (setting [8]) were 50%, 47% and 47%, respectively.
Regarding `CCCCCCCCCCCC[N+](C)(C)Cc1ccccc1` [Benzododecinium chloride], the viability at 50 µM in series [2] (setting [8]) came to 40%. Besides, in series [2], the “activity against stationary phase B. burgdorferi (in words)” value was “very high activities”. Besides, the MIC with growing B. burgdorferi (Borreliella burgdorferi, read-out: MIC) lay in the range of 0.6 to 1.2 µg/mL.
Regarding `CC(C)(C)C(=O)C(Oc1ccc(Cl)cc1)n1ccnc1` (stereo not drawn) [Climbazole], the viability at 50 µM turned out to be 71% in series [1] and 62% in series [2] (setting [8]). Also, the “activity against stationary phase B. burgdorferi (in words)” value in series [2] was “reasonable activity”.
On to `CN[C@@H]1C[C@@H](c2ccc(Cl)c(Cl)c2)c2ccccc21.Cl` [Indatraline, Indatraline hydrochloride], for which the “Residual viable cells (Microscopy)” value in series [1] (setting [3]) and in series [1] (setting [4]) was 43% each time. In addition, the “Residual viable cells (SYBR Green/PI)” value in series [2] (setting [5]) is on record as 51%. Also, in series [2] (setting [6]), the “Residual viable cells (SYBR/PI)” value is 51%. The “activity against stationary phase B. burgdorferi (in words)” value in series [2] was “high activity”.
`CC(=O)N[C@H]1[C@H]([C@H](O)[C@H](O)CO)OC(C(=O)O)=C[C@@H]1N=C(N)N` [Zanamivir]: the viability at 50 µM in series [1] worked out at 60%; in series [2] (setting [7]), 49%; in series [2] (setting [8]), 49%. Moreover, in series [2], the “activity against stationary phase B. burgdorferi (in words)” value is recorded as “good activity”.
For the compound `CN(C)c1ccc2nc3ccc(=[N+](C)C)cc-3sc2c1` [Methylene blue hydrate], in series [1], the viability at 50 µM was found to be 40%. In addition, the “activity against B. burgdorferi persisters by careful microscopy analysis (in words)” value in series [1] (coloured drugs verified by microscopy) is “high activity”. Besides, in series [2], the “activity against stationary phase B. burgdorferi (in words)” value is given as “good activity”.
Regarding `Cc1cc(-n2c(=O)[nH]c(=O)n(C)c2=O)ccc1Oc1ccc(SC(F)(F)F)cc1` [Toltrazuril], the figures for the viability at 50 µM in series [1], in series [2] (setting [7]) and in series [2] (setting [8]) were 60%, 43% and 43%, respectively.
Regarding `CN1CCCN=C1/C=C/c1cccc(O)c1` [Oxantel], the figures for the viability at 50 µM in series [1], in series [2] (setting [7]) and in series [2] (setting [8]) were 63%, 44% and 44%, respectively.
Turning to `Nc1nc(=O)[nH]cc1F` [Flucytosine (5-Fluorocytosine), 5-Fluorocytosine], the figures for the viability at 50 µM in series [1] and in series [2] (setting [8]) were 66% and 68%, respectively.
As to `CO/N=C(\C(=O)N[C@@H]1C(=O)N2C(C(=O)O)=C(COC(N)=O)CS[C@H]12)c1ccco1` [Cefuroxime], the viability at 50 µM was 49% in series [1] and 43% in series [2] (setting [7]).
For the compound `Cc1nc(NS(=O)(=O)c2ccc(N)cc2)oc1C` [Sulfamoxole], the viability at 50 µM in series [1] was 55%; in series [2] (setting [7]), 57%; in series [2] (setting [8]), 57%.
In the case of `C=CCCCCCCCCC(=O)O` [Undecylenic acid], the viability at 50 µM in series [1] was 74%; in series [2] (setting [8]), 55%.
Take `CC[C@H](C)[C@H](N)C1=N[C@H](C(=O)N[C@@H](CC(C)C)C(=O)N[C@H](CCC(=O)O)C(=O)N[C@H](C(=O)N[C@H]2CCCCNC(=O)[C@H](CC(N)=O)NC(=O)[C@@H](CC(=O)O)NC(=O)[C@H](Cc3cnc[nH]3)NC(=O)[C@@H](Cc3ccccc3)NC(=O)[C@H]([C@@H](C)CC)NC(=O)[C@@H](CCCN)NC2=O)[C@@H](C)CC)CS1` [Bacitracin, Bacitracin zinc salt] ({Ileψ(thiazoline)Cys}-L[dE]IK[dOrn]I[dF]H[dD]N; lactam 4-C): the viability at 50 µM in series [1] was determined as 60%; in series [2] (setting [7]) it was 47%; in series [2] (setting [8]), 47%.
Take `C[C@]1(Cn2ccnn2)[C@H](C(=O)O)N2C(=O)C[C@H]2S1(=O)=O` [Tazobactam]: the viability at 50 µM in series [1] is 56%; in series [2] (setting [7]), 54%; in series [2] (setting [8]), 54%.
Turning to Mepartricin, in series [1] (setting [3]), the “Residual viable cells (Microscopy)” value came out at 60%. Moreover, the “Residual viable cells (SYBR Green/PI)” value in series [2] (setting [5]) is given as 43%. In series [2] (setting [6]), the “Residual viable cells (SYBR/PI)” value was 43%. Moreover, the “activity against stationary phase B. burgdorferi (in words)” value in series [2] is “reasonable activity”.
Take “Potassium antimonyl tartrate trihydrate [Tartar emetic]”: the “Residual viable cells (Microscopy)” value in series [1] (setting [3]) and in series [1] (setting [4]) was 45% in each case. Moreover, the “Residual viable cells (SYBR Green/PI)” value in series [2] (setting [5]) stood at 42%. Also, the “Residual viable cells (SYBR/PI)” value in series [2] (setting [6]) is given as 42%.
